In patent publication US6737383B1, “Herbicidal oxadiazolidines” (priority 1999, dated 2004):

Key:
[1] = tested on: blackgrass; assay: Test B pre/postemergence blackgrass; format: in vivo, Alopecurus myosuroides; conditions: for Plant response rating, Blackgrass: Preemergence; for Blackgrass plant response rating: Postemergence, scale 0 to 10, 0 is no effect, 10 is complete control
In short: (§1)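 Herbicidal effect was estimated by eye on a ten-point control scale after plants spent twelve to sixteen days in a greenhouse following soil or foliar treatment. Foliar sprays targeted plants at one to four leaves; all doses were formulated in a non-phytotoxic solvent with surfactant.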

[2] = tested on: giant foxtail; assay: Test B pre/postemergence giant foxtail; format: in vivo, Setaria faberii; conditions: for Giant foxtail plant response rating: Postemergence; for Plant response rating, Giant foxtail: Preemergence
In short: as §1

[3] = tested on: bedstraw; assay: Test B pre/postemergence bedstraw; format: in vivo, Galium aparine; conditions: for Bedstraw plant response rating: Postemergence
In short: as §1

[4] = tested on: wheat; assay: Test B pre/postemergence wheat; format: in vivo, Triticum aestivum; conditions: for Wheat plant response rating: Postemergence; for Plant response rating, Wheat: Preemergence
In short: as §1

[5] = tested on: pigweed; assay: Test B pre/postemergence pigweed; format: in vivo, Amaranthus retroflexus; conditions: for Redroot pigweed plant response rating: Postemergence; for Plant response rating, Redroot pigweed: Preemergence
In short: as §1

[6] = tested on: rape; assay: Test B pre/postemergence rape; format: in vivo, Brassica napus; conditions: for Rape plant response rating: Postemergence; for Plant response rating, Rape: Preemergence
In short: as §1

[7] = tested on: cocklebur; assay: Test B pre/postemergence cocklebur; format: in vivo, Xanthium strumarium; conditions: for Cocklebur plant response rating: Postemergence; for Plant response rating, Cocklebur: Preemergence
In short: as §1

[8] = tested on: surinam grass; assay: Test B pre/postemergence surinam grass; format: in vivo, Brachiaria decumbens; conditions: for B. signalgrass plant response rating: Postemergence; for Plant response rating, B. signalgrass: Preemergence
In short: as §1

[9] = tested on: rice; assay: Test B flood test rice; format: in vivo, Oryza sativa
In short: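 Read-out is a visual response score from 0 (no effect) to 10 (complete control), assigned by comparison with untreated controls. Treatment was applied at the 2-leaf stage, and plants stayed in the greenhouse for twelve to sixteen days before scoring.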

[10] = tested on: wild oat; assay: Test B pre/postemergence wild oat; format: in vivo, Avena fatua; conditions: for Wild oats plant response rating: Postemergence; for Plant response rating, Wild oats: Preemergence
In short: as §1

[11] = Rate 250 g/ha, scale 0 to 10 (0 no effect, 10 complete control)
[12] = Rate 500 g/ha, scale of 0 to 10 where 0 is no effect and 10 is complete control
[13] = Rate 1000 g/ha, scale 0 to 10 (0 no effect, 10 complete control)
[14] = Rate 125 g/ha, scale of 0 to 10 where 0 is no effect and 10 is complete control
[15] = Rate 250 g/ha, scale 0 to 10, 0 is no effect, 10 is complete control
[16] = Rate 500 g/ha, scale 0 to 10, 0 is no effect, 10 is complete control

In the case of `CCOC(=O)CC(C(=O)OCC)n1c(=O)on(C(=O)N(c2ccc(Cl)cc2)C(C)C)c1=O` (stereo not drawn) [Compound 681], the “Plant response rating, Blackgrass” value [1, 11] is reported as 1, the “Plant response rating, Blackgrass” value [1, 12] is reported as 3 and the “Blackgrass plant response rating” value ([1]; Rate 250 g/ha) is reported as 0. The “Blackgrass plant response rating” value ([1]; Rate 500 g/ha) was 0, the “Plant response rating, Blackgrass” value [1, 13] was 6 and the “Giant foxtail plant response rating” value [2, 14] was 0. For the same compound, the “Giant foxtail plant response rating” value [2, 13] was 3, the “Plant response rating, Giant foxtail” value [2, 14] was 0 and the “Plant response rating, Giant foxtail” value [2, 12] was 9. The “Giant foxtail plant response rating” value [2, 15] was 0, the “Giant foxtail plant response rating” value [2, 16] was 0 and the “Plant response rating, Giant foxtail” value [2, 13] was 9. The “Bedstraw plant response rating” value [3, 14] was 0, the “Plant response rating, Bedstraw” value ([3]; Preemergence, Rate 125 g/ha, scale of 0 to 10 where 0 is no effect and 10 is complete control) was 0 and the “Bedstraw plant response rating” value [3, 15] was 0. The “Wheat plant response rating” value [4, 14] was 0, the “Plant response rating, Wheat” value [4, 14] was 0 and the “Plant response rating, Wheat” value [4, 12] was 0. For the same compound, the “Wheat plant response rating” value [4, 15] was 0, the “Wheat plant response rating” value [4, 16] was 0 and the “Plant response rating, Wheat” value [4, 13] was 0. The “Redroot pigweed plant response rating” value [5, 14] was 0, the “Redroot pigweed plant response rating” value [5, 13] was 7 and the “Plant response rating, Redroot pigweed” value [5, 14] was 0. The “Plant response rating, Redroot pigweed” value [5, 12] was 3, the “Redroot pigweed plant response rating” value [5, 15] was 2 and the “Redroot pigweed plant response rating” value [5, 16] was 6. For the same compound, the “Plant response rating, Redroot pigweed” value [5, 13] was 5, the “Rape plant response rating” value [6, 14] was 0 and the “Rape plant response rating” value [6, 13] was 0. The “Plant response rating, Rape” value [6, 14] was 0, the “Plant response rating, Rape” value [6, 12] was 0 and the “Rape plant response rating” value [6, 15] was 0. The “Rape plant response rating” value [6, 16] was 0, the “Plant response rating, Rape” value [6, 13] was 0 and the “Cocklebur plant response rating” value [7, 14] was 0. The “Cocklebur plant response rating” value [7, 13] was 0, the “Plant response rating, Cocklebur” value [7, 14] was 0 and the “Plant response rating, Cocklebur” value [7, 11] was 0. The “Plant response rating, Cocklebur” value [7, 12] was 0, the “Cocklebur plant response rating” value [7, 15] was 0 and the “Cocklebur plant response rating” value [7, 16] was 0. For the same compound, the “B. signalgrass plant response rating” value [8, 14] was 0, the “B. signalgrass plant response rating” value [8, 13] was 0 and the “Plant response rating, B. signalgrass” value [8, 14] was 0. The “Plant response rating, B. signalgrass” value [8, 11] was 0, the “Plant response rating, B. signalgrass” value [8, 12] was 0 and the “B. signalgrass plant response rating” value [8, 15] was 0. The “B. signalgrass plant response rating” value [8, 16] was 0, the “Plant response rating, B. signalgrass” value [8, 13] was 4 and the “Rice plant response rating” value ([9]; Pre-emergence, Rate 1000 g/ha, scale 0 to 10 (0 no effect, 10 complete control)) was 0. For the same compound, the “Rice plant response rating (0 to 10 scale, 0 is no effect, 10 is complete control)” value ([9]; Rate 125 g/ha, under heading Pre-emergence, flood test species, visual evaluation after twelve to sixteen days) was 0, the “Rice plant response rating” value ([9]; Rate 250 g/ha, Pre-emergence (flood test species), scale 0 to 10, 0 is no effect, 10 is complete control) was 0 and the “Rice plant response rating” value ([9]; Rate 500 g/ha, Pre-emergence section of Table B, 0 to 10 scale (0 no effect, 10 complete control)) was 0. For the same compound, the “Wild oats plant response rating” value [10, 14] was 0, the “Plant response rating, Wild oats” value [10, 14] was 0 and the “Plant response rating, Wild oats” value [10, 12] was 0. For the same compound, the “Wild oats plant response rating” value [10, 15] was 0, the “Wild oats plant response rating” value [10, 16] was 0 and the “Plant response rating, Wild oats” value [10, 13] was 3.
